Reference: paper PMC4498792, “Characterization of Novel Src Family Kinase Inhibitors to Attenuate Microgliosis” (PLoS ONE, 2015)
Like-named read-outs stand apart in the source and are kept apart here.

Assays:
[1] = Caco-2 bidirectional permeability assay; format: in vitro ADME; details: human
Experimental: (§1) Briefly, the compound was incubated with human or mouse microsomes in the presence or absence of NADPH. […] Data were converted to percent remaining by dividing by the time zero concentration value. In vitro half-life was determined based on the slope of the (first-order) decay curve and this value was converted to intrinsic clearance (CLint). […] Briefly, Caco-2 cells were plated in Millipore 96-well transwell plates and allowed to differentiate for 21 days to form polarized, epithelial monolayers. For apical to basolateral (A→B) permeability, the compound was added to the apical (A) side and amount permeation determined on the basolateral (B) side. For B→A permeability, the compound was added on the basolateral (B) side. Upon completion of the incubation (2 hr), the receiver side buffer was removed for analysis by LC-MS/MS. From the samples, apparent permeability rate coefficients (Papp values) and efflux ratios were determined for the compound.

JNK = experiment: Basal pJNK western blot in BV2 cells; format: cell-based, murine; details: 0.5nM to 50 μM, 1h
Experimental: (§2) BV2 cells were harvested and counted before stimulation. The cells were untreated (control), vehicle-treated (DMSO), or treated with increasing concentrations (0.5nM, 5nM, 50nM, 0.5 μM, 5μM and 50 μM) of LDDN-0003499, LDDN-0075935, LDDN-0125694 or LDDN-0127164 for 24h to assess toxicity and 1 hour to assess effects on basal kinase activity. For secretion analyses, cells were pretreated with drugs for 1 hour prior to stimulation with 50nM Aβ (overnight) or 25ng/mL LPS (overnight) in the presence of the drugs in serum free DMEM/F12. Media were collected for ELISA analysis and for LDH release viability assays. For signaling analyses, cells were pretreated with drugs for 1 hour prior to 5 minute stimulation with 1μM Aβ 1–42. […] Protein concentrations were determined using the Bradford method.
(§3) Cell lysates were resolved by SDS-PAGE on 10% polyacrylamide gels and transferred to PVDF membranes. […] Blots were washed followed by incubation with HRP-conjugated secondary antibodies and antibody binding was detected via enhanced chemiluminescence (GE Healthcare, Piscataway, NJ). Western blots were quantified using Adobe Photoshop software. […]

microglial BV2 cells = experiment: LDH release cell viability assay; format: cell-based, murine; details: 0.5nM to 50 μM, 24h
Experimental: as §2
For the lactate dehydrogenase release (LDH) assay, media following the 24 hour cell stimulations were transferred onto a new 96-well plate and LDH concentrations assayed according to manufacturer instructions (Promega Corporation, Madison, WI). Background absorbance was subtracted from each condition. All absorbance values for the LDH assay were averaged and plotted ±SD.

ERK [2] = experiment: Basal pERK western blot in BV2 cells; format: cell-based, murine; details: 0.5nM to 50 μM, 1h
Experimental: as §2, §3

Src [3] = biological target: T1, Src (Mus musculus, UniProt P05480); experiment: Basal pSrc (Tyr 416) western blot in BV2 cells; format: cell-based, murine; details: 0.5nM to 50 μM, 1h
T1 construct: endogenous in cells; host or cells: BV2 murine microglial cell line
Experimental: as §2, §3

p38 = experiment: Basal p-p38 western blot in BV2 cells; format: cell-based, murine; details: 0.5nM to 50 μM, 1h
Experimental: as §2, §3

Lyn [4] = biological target: T2, Lyn (Mus musculus, UniProt P25911); experiment: Basal pLyn (Tyr 396) western blot in BV2 cells; format: cell-based, murine; details: 0.5nM to 50 μM, 1h
T2 construct: endogenous in cells; host or cells: BV2 murine microglial cell line
Experimental: as §2, §3

[5] = test system: total protein phosphotyrosine levels in BV2 cells; experiment: Total protein phosphotyrosine western blot (4G10), basal; format: cell-based, murine; details: 0.5nM to 50 μM, 1h, vs vehicle
Experimental: as §2, §3

Caco-2 cells = experiment: Caco-2 bidirectional permeability assay; format: in vitro ADME; details: Caco-2, 10 μM, 2 hr
Experimental: as §1

TNF-α secretion [6] = experiment: LPS-stimulated TNF-α secretion ELISA in BV2 cells; format: cell-based, murine; details: 1h pretreatment, 25ng/ml LPS, 24h
Experimental: as §2
(§4) Media were collected from BV2 cells following 24 hour stimulations for ELISA analyses. Levels of mouse TNF-α, IL-6, and IL-1β in the media were determined using commercially available ELISA kits according to the manufacturer’s protocol (R&D Systems).

TNF-α secretion [7] = experiment: Aβ-stimulated TNF-α secretion ELISA in BV2 cells; format: cell-based, murine; details: 1h pretreatment, 50nM Aβ 1-42, 24h
Experimental: as §2, §4

[8] = Microsomal stability / intrinsic clearance assay, mouse; format: in vitro ADME; details: liver microsomes
Experimental: as §1

[9] = Microsomal stability / intrinsic clearance assay, human; format: in vitro ADME; details: liver microsomes
Experimental: as §1

IL-6 secretion = experiment: Aβ-stimulated IL-6 secretion ELISA in BV2 cells; format: cell-based, murine; details: 1h pretreatment, 50nM Aβ 1-42, 24h
Experimental: as §2, §4

ERK [10] = experiment: Aβ-stimulated pERK western blot in BV2 cells; format: cell-based, murine; details: 1h pretreatment, 1 μM Aβ
Experimental: (§5) BV2 cells were harvested and counted before stimulation. The cells were untreated (control), vehicle-treated (DMSO), or treated with increasing concentrations (0.5nM, 5nM, 50nM, 0.5 μM, 5μM and 50 μM) of […]-0125694 or LDDN-0127164 for 24h to assess toxicity and 1 hour to assess effects on basal kinase activity. […] Media were collected for ELISA analysis and for LDH release viability assays. For signaling analyses, cells were pretreated with drugs for 1 hour prior to 5 minute stimulation with 1μM Aβ 1-42. […] Protein concentrations were determined using the Bradford method. Cell lysates were resolved by SDS-PAGE on 10% polyacrylamide gels and transferred to PVDF membranes. Western blots were blocked with 3% bovine serum albumin and incubated in anti-phospho-[…][…]), anti-pSrc ([…]), anti-pERK, anti-pLyn ([…]), anti-pJNK, and anti-phospho-p38 primary antibodies with anti-α-tubulin, Src, ERK2, Lyn, JNK, and p38 antibodies used as the respective loading controls. Blots were washed followed by incubation with HRP-conjugated secondary antibodies and antibody binding was detected via enhanced chemiluminescence (GE Healthcare, Piscataway, NJ). Western blots were quantified using Adobe Photoshop software. Optical densities of bands were normalized using their appropriate loading controls and averaged (±) SD.

Lyn [11] = biological target: T2, Lyn; experiment: Aβ-stimulated pLyn western blot in BV2 cells; format: cell-based, murine
Experimental: as §5

Src [12] = biological target: T1, Src; experiment: Aβ-stimulated pSrc western blot in BV2 cells; format: cell-based, murine; details: 1h pretreatment, 1 μM Aβ 1-42 for 5 minutes
Experimental: as §5

[13] = read-out: NADPH-Dependent CLint

T2 sequence (P25911 whole entry): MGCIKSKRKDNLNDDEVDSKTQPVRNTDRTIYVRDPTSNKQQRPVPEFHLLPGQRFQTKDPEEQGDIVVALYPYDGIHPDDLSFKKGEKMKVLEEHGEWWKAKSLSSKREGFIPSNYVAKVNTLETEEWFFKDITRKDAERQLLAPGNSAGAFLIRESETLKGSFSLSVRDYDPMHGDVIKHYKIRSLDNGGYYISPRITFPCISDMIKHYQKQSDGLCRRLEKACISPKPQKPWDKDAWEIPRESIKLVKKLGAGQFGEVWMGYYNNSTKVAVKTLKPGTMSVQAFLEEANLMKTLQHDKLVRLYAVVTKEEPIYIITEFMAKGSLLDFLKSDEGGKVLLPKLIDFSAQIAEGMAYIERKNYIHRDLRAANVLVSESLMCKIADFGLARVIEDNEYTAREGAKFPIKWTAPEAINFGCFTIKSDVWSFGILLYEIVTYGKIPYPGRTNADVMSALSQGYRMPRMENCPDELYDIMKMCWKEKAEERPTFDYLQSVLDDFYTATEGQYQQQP
T1 sequence (P05480 whole entry): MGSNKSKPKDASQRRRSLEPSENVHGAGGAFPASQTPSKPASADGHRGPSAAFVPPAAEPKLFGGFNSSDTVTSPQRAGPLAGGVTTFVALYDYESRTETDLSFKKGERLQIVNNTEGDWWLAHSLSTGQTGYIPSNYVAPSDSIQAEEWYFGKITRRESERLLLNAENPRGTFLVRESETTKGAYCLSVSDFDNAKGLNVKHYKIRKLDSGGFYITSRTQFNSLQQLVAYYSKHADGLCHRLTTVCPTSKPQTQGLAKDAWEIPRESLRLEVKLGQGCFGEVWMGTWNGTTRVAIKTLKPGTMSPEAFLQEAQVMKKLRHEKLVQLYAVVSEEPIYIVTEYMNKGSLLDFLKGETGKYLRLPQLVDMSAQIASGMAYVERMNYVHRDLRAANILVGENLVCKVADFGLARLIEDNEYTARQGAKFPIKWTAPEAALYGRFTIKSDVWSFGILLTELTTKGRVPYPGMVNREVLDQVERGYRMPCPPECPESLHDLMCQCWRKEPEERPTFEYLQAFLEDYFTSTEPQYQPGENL

CC(=O)CC(c1ccccc1)c1c(O)c2ccccc2oc1=O (stereo not drawn) [warfarin, reference compound]
Papp A→B at 2 hr, 10 μM ([1]; Caco-2): 27.1 ×10⁻⁶ cm/s | Papp B→A at 2 hr, 10 μM ([1]; Caco-2): 10.4 ×10⁻⁶ cm/s

O=C(Nc1cc(Cl)ccc1Cl)c1noc2c1CCC2 [LDDN-0075935]
phosphorylated JNK (pJNK) protein levels (JNK): did not attenuate | toxicity to microglial BV2 cells (LDH release, cell viability) (microglial BV2 cells): not toxic | phosphorylated ERK (pERK) protein levels (ERK [2]): stimulated increased pERK protein levels at the highest drug concentration | active, phosphorylated Src (pSrc) protein levels (Src [3]): not able to attenuate | phosphorylated p38 (p-p38) protein levels (p38): did not attenuate | active, phosphorylated Lyn (pLyn) protein levels (Lyn [4]): not able to attenuate | total protein phosphotyrosine levels [5]: no effect

COc1cc2ncnc(Nc3ccc(Cl)cc3Cl)c2cc1OC [LDDN-0003499]
efflux ratio at 2 hr, 10 μM ([1]; Caco-2, 10 μM, 2 hr, read-out: Efflux Ratio Papp(B→A) / Papp(A→B)): 0.85 | Papp A→B at 2 hr, 10 μM ([1]; Caco-2, 10 μM, 2 hr, read-out: mean A→B Papp): 19 ×10⁻⁶ cm/s | Papp B→A at 2 hr, 10 μM ([1]; Caco-2, 10 μM, 2 hr, read-out: mean B→A Papp): 16.2 ×10⁻⁶ cm/s | Caco-2 permeability, comment (Caco-2 cells): high permeability | LPS stimulated TNF-α secretion (TNF-α secretion [6]): attenuated | Aβ stimulated TNF-α secretion (TNF-α secretion [7]): dose-dependently inhibited | concentration at which inhibition of Aβ stimulated TNF-α secretion begins (TNF-α secretion [7]): 500 nM | half-life at 1 μM ([8]; read-out: NADPH-Depend. T1/2): 16.6 min | microsomal CLint at 1 μM [8, 13]: 83.3 µL/min/mg | microsomal CLint at 1 μM ([8]; read-out: NADPH-Free CLint): 15.8 µL/min/mg | half-life at 1 μM ([8]; read-out: NADPH-Free T1/2): 88 min | half-life at 1 μM ([9]; read-out: NADPH-Depend. T1/2): 14.1 min | microsomal CLint at 1 μM [9, 13]: 98.4 µL/min/mg | microsomal CLint at 1 μM ([9]; read-out: NADPH-Free CLint): 21.2 µL/min/mg | half-life at 1 μM ([9]; read-out: NADPH-Free T1/2): 65 min | phosphorylated JNK (pJNK) protein levels (JNK): no ability to alter | Aβ stimulated IL-6 secretion (IL-6 secretion): dose-dependently inhibited | pERK levels following Aβ stimulation (ERK [10]): no inhibition | toxicity to microglial BV2 cells (LDH release, cell viability) (microglial BV2 cells): not toxic | phosphorylated ERK (pERK) protein levels (ERK [2]): no ability to alter | active, phosphorylated Src (pSrc) protein levels (Src [3]): dose-dependent decrease | phosphorylated p38 (p-p38) protein levels (p38): no ability to alter | selectivity for Lyn versus Src in the Aβ stimulation paradigm (Lyn [11]; 50nM (pLyn) vs 500nM (pSrc)): tenfold | concentration sufficient to significantly attenuate the Aβ stimulated increase in pLyn levels (Lyn [11]; 1h pretreatment, 1 μM Aβ 1-42 for 5 minutes): 50 nM | concentration required to attenuate the Aβ stimulated increase in pSrc (Src [12]): 500 nM | active, phosphorylated Lyn (pLyn) protein levels (Lyn [4]): dose-dependent decrease | total protein phosphotyrosine levels [5]: significantly decrease the total protein phosphotyrosine levels in a dose-dependent manner
